According to US4596819A, “Modified tripeptides” (Warner-Lambert Company, priority 1984, dated 1986):

What was measured:
[1] = test system: learning and memory; conditions: intranasal administration, young unimpaired human subjects, compared with placebo treatment; cited from earlier work
[2] = test system: recall of learned information; conditions: two patients given bilateral electroconvulsive shock therapy (ECT); cited from earlier work
[3] = test system: amnesia produced by electroconvulsive shock; test: reversal of electroconvulsive shock-induced amnesia, rats; format: in vivo
[4] = test system: amnesia produced by electroconvulsive shock; test: reversal of electroconvulsive shock-induced amnesia, mice; format: in vivo
Method: The modified peptides in accordance with this invention are effective in treating senility, in enhancing memory, or of reversing the effects of electroconvulsive shock-induced amnesia. The effectiveness of these compounds is determined by the test designed to show the compound's ability to reverse amnesia produced by electroconvulsive shock. The test is more fully described in U.S. Pat. No. 4,145,347, issued Mar. 20, 1979, the disclosure of which is herein incorporated by reference. The only deviation in the present instance is that the compounds tested are administered orally, and the duration of the electroconvulsive shock administered is 1.0 seconds.

[5] = test system: amnesia produced by electroconvulsive shock; test: as above; format: in vivo; remark: listed apart in the source
[6] = test system: pole-climbing avoidance; conditions: cited from earlier work

| Compound | % Amnesia Reversal Rats ([3]; dose 0.001 mg/kg IM) [%] | Amnesia reversal rating, rats ([3]; dose 0.001 mg/kg IM) | % Amnesia Reversal Rats ([3]; dose 0.010 mg/kg IM) [%] | Amnesia reversal rating, rats ([3]; dose 0.010 mg/kg IM) | % Amnesia Reversal Rats ([3]; dose 0.100 mg/kg IM) [%] | Amnesia reversal rating, rats ([3]; dose 0.100 mg/kg IM) | further results |
| --- | --- | --- | --- | --- | --- | --- | --- |
| 1-desamino-8-D-arginine vasopressin [DDAVP] |  |  |  |  |  |  | effect on learning and memory [1]: increases in learning and memory; effect on recall of learned information [2]: Positive effects on recall of learned information |
| CC(C)C[C@@H](CSCC(=O)O)NC(=O)[C@@H]1CCC(=O)N1C(=O)OCc1ccccc1 (relative stereo) [Z3-KetoProLeu[CH2 S]Gly, [S-(R*,R*)]-Phenylmethyl 5-oxo-2-[[[1-[[(carboxymethyl)thio]methyl]-3-methylbutyl]amino]carbonyl]-1-pyrrolidinecarboxylate] | 33 | C (25 to 39 percent amnesia reversal (borderline activity=C)) | 0 | N (0 to 25 percent amnesia reversal (inactive=N)) | 0 | N (0 to 25 percent amnesia reversal (inactive=N)) |  |
| CC(C)C[C@@H](CNCC(N)=O)NC(=O)[C@@H]1CCCN1C(=O)OCc1ccccc1.Cl (relative stereo) [ZProLeu[CH2 NH]GlyNH2, [S-(R*,R*)]-2-[[[1-[[(2-Amino-2-oxoethyl)-amino]methyl]-3-methylbutyl]amino]-carbonyl]-1-pyrrolidinecarboxylic acid, phenylmethyl ester, monohydrochloride] | 43 | A (40 percent or more amnesia reversal (active=A)) | 43 | A (40 percent or more amnesia reversal (active=A)) | 43 | A (40 percent or more amnesia reversal (active=A)) |  |
| CC(C)C[C@H](NC[C@@H]1CCCN1C(=O)OCc1ccccc1)C(=O)NCC(N)=O (relative stereo) [ZPro[CH2 NH]LeuGlyNH2, [S-(R*,R*)]-2-[[[[1-[(2-Amino-2-oxoethyl)amino]carbonyl]-3-methylbutyl]amino]methyl]-1-pyrrolidinecarboxylic acid, phenylmethyl ester] | 11 | N (0 to 25 percent amnesia reversal (inactive=N)) | 0 | N (0 to 25 percent amnesia reversal (inactive=N)) | 0 | N (0 to 25 percent amnesia reversal (inactive=N)) | % Amnesia Reversal Mice ([4]; dose 1 mg/kg PO): 85%; Amnesia reversal rating, mice ([4]; dose 1 mg/kg PO): A (40 percent or more amnesia reversal (active=A)); % Amnesia Reversal Mice ([4]; dose 10 mg/kg PO): 67%; Amnesia reversal rating, mice ([4]; dose 10 mg/kg PO): A (40 percent or more amnesia reversal (active=A)); % Amnesia Reversal Mice ([4]; dose 100 mg/kg PO): 57%; Amnesia reversal rating, mice ([4]; dose 100 mg/kg PO): A (40 percent or more amnesia reversal (active=A)) |
| Cc1ccc(S(=O)(=O)N2CCCC2CN[C@@H](CC(C)C)C(=O)NCC(N)=O)cc1 (stereo partly drawn) [TosPro[CH2 NH]DLeuGlyNH2, (S)-N^2-[[1-[(4-Methylphenyl)sulfonyl]-2-pyrrolidinyl]methyl]-D-Leucylglycinamide] | 0 | N (0 to 25 percent amnesia reversal (inactive=N)) | 0 | N (0 to 25 percent amnesia reversal (inactive=N)) | 34 | C (25 to 39 percent amnesia reversal (borderline activity=C)) |  |
| CC(C)CC(CSCC(=O)O)NC(=O)C1CC(=O)CN1C(=O)OCc1ccccc1 (stereo not drawn) [Z4-Keto ProLeu[CH2 S]Gly, [S-(R*,R*)]-Phenylmethyl 2-[[[1-[[(carboxymethyl)thio]methyl]-3-methylbutyl]amino]carbonyl]-4-oxo-1-pyrrolidinecarboxylate] | 17 | N (0 to 25 percent amnesia reversal (inactive=N)) | 50 | A (40 percent or more amnesia reversal (active=A)) | 83 | A (40 percent or more amnesia reversal (active=A)) |  |
| CC(C)CC(CSCC(=O)O)NC(=O)C1CCCN1C(=O)OCc1ccccc1 (stereo not drawn) [ZProLeu[CH2 S]Gly, [2S-(R*,R*)]-Phenylmethyl2-[[[1-[[(carboxymethyl)thio]methyl]-3-methylbutyl]amino]carbonyl]-1-pyrrolidinecarboxylate] | 57 | N (0 to 25 percent amnesia reversal (inactive=N)) | 57 | A (40 percent or more amnesia reversal (active=A)) | 14 | N (0 to 25 percent amnesia reversal (inactive=N)) | % Amnesia Reversal Mice ([5]; dose 0.1 mg/kg IM): 69%; Amnesia reversal rating, mice ([5]; dose 0.1 mg/kg IM): A (40 percent or more amnesia reversal (active=A)); % Amnesia Reversal Mice ([5]; dose 1.0 mg/kg IM): 77%; Amnesia reversal rating, mice ([5]; dose 1.0 mg/kg IM): A (40 percent or more amnesia reversal (active=A)); % Amnesia Reversal Mice ([5]; dose 10.0 mg/kg IM): 69%; Amnesia reversal rating, mice ([5]; dose 10.0 mg/kg IM): A (40 percent or more amnesia reversal (active=A)) |
| NC(=O)COCC(Cc1ccccc1)NC(=O)[C@@H]1CCCN1C(=O)OCc1ccccc1 (stereo partly drawn) [ZProPhe[CH2 O]GlyNH2, (2S)-Phenylmethyl 2[[[1-[(2-amino-2-oxoethoxy)methyl]-2-phenylethyl]amino]carbonyl]-1-pyrrolidinecarboxylate] | 11 | N (0 to 25 percent amnesia reversal (inactive=N)) | 0 | N (0 to 25 percent amnesia reversal (inactive=N)) | 0 | N (0 to 25 percent amnesia reversal (inactive=N)) | % Amnesia Reversal Mice ([4]; dose 1 mg/kg PO): 20%; Amnesia reversal rating, mice ([4]; dose 1 mg/kg PO): N (0 to 25 percent amnesia reversal (inactive=N)); % Amnesia Reversal Mice ([4]; dose 10 mg/kg PO): 59%; Amnesia reversal rating, mice ([4]; dose 10 mg/kg PO): A (40 percent or more amnesia reversal (active=A)); % Amnesia Reversal Mice ([4]; dose 100 mg/kg PO): 71%; Amnesia reversal rating, mice ([4]; dose 100 mg/kg PO): A (40 percent or more amnesia reversal (active=A)) |
| NC(=O)CC[C@@H]1NC(=O)[C@H](Cc2ccccc2)NC(=O)[C@H](Cc2ccc(O)cc2)NC(=O)[C@@H](N)CSSC[C@@H](C(=O)N2CCC[C@H]2C(=O)N[C@@H](CCCN=C(N)N)C(=O)NCC(N)=O)NC(=O)[C@H](CC(N)=O)NC1=O [vasopressin] |  |  |  |  |  |  | effect on learning and memory [1]: increases in learning and memory |
| Pro-Arg-Gly-NH2 |  |  |  |  |  |  | activity in the rat pole-climbing avoidance test [6]: active |
